Source: patent US4600537A, “Preparation of (±) 4-demethoxy-6 (and-11-)-deoxydaunomycinone” (Farmitalia Carlo Erba S.p.A., priority 1981, dated 1986)
Values after ≈ are worked out from the molar mass of the structure shown. Values joined by “and” are separate entries in the source; they are usually repeats but may differ in a detail not shown here. Identical values can stand only once.

Tests used:
P388 ascitic leukemia = assay: Effect against P388 leukemia in mice; set-up: LTS (long term survivors) / Toxic deaths (evaluated on the basis of zooptic findings): dose or concentration left out as unconfirmed; details: for antitumor activity (in words): P388 ascitic leukemia in mice
Experimental: The activity of the compounds 4-demethoxy-4'-epi-11-deoxydaunorubicin and 4-demethoxy-deoxy-daunorubicin was also tested against P388 ascitic leukemia in mice.

Hela cells = assay: Effect on Hela cells cloning activity (cytotoxic activity in vitro); format: cell-based; details: treatment for 24 hours; for IC50: read-out: Effect on Hela cells cloning activity, ID50; for Effect on Hela cells cloning activity, %: 1440 min; for activity at 0.1 µg/mL: dose 100 ng/ml
Experimental: The biological activity of the following compound was tested against Hela cells in vitro: […]

[1] = Homo sapiens, HeLa, 24 h, dose 6.2 ng/ml
[2] = Homo sapiens, HeLa, 24 h, dose 25 ng/ml

Compound | antitumor activity (in words) (P388 ascitic leukemia) | LTS (long term survivors) (P388 ascitic leukemia; dose 4.4, ip on day 1) | Toxic deaths (evaluated on the basis of zooptic findings) (P388 ascitic leukemia; dose 4.4, ip on day 1) | LTS (long term survivors) (P388 ascitic leukemia; dose 6.6, ip on day 1) | Toxic deaths (evaluated on the basis of zooptic findings) (P388 ascitic leukemia; dose 6.6, ip on day 1) | LTS (long term survivors) (P388 ascitic leukemia; dose 10, ip on day 1) | Toxic deaths (evaluated on the basis of zooptic findings) (P388 ascitic leukemia; dose 10, ip on day 1) | IC50 (Hela cells; Homo sapiens, HeLa) [µg/mL] | Effect on Hela cells cloning activity, % (Hela cells; dose 6.2 ng/ml) | activity at 0.0062 µg/mL (Hela cells; [1]) [%] | activity at 0.025 µg/mL (Hela cells; [2]) [%] | activity at 0.1 µg/mL (Hela cells; Homo sapiens, HeLa, 24 h) [%] | other results
4-demethoxy-deoxy-daunorubicin | exert antitumor activity | 0/10 | 0/10 | 0/10 | 7/10 | 0/10 | 8/10 |  |  |  |  |  | 
CC(=O)[C@]1(O)Cc2cc3c(c(O)c2[C@@H](O[C@H]2C[C@H](N)[C@@H](O)[C@H](C)O2)C1)C(=O)c1ccccc1C3=O [4-demethoxy-4'-epi-11-deoxydaunorubicin] | exert antitumor activity |  |  | 0/10 | 0/10 | 0/10 | 0/10 | 0.04 (≈ 0.0831 µM) | 60% and 105% |  |  |  | LTS (long term survivors) (P388 ascitic leukemia; dose 15, ip on day 1): 0/10; Toxic deaths (evaluated on the basis of zooptic findings) (P388 ascitic leukemia; dose 15, ip on day 1): 0/10; Effect on Hela cells cloning activity, % (Hela cells; dose 1.5 ng/ml): 78% and 109%; Effect on Hela cells cloning activity, % (Hela cells; dose 25 ng/ml): 56% and 82%
CC(=O)[C@]1(O)Cc2c(cc3c(c2O)C(=O)c2ccccc2C3=O)[C@@H](O[C@H]2C[C@H](N)[C@H](O)[C@H](C)O2)C1 [4-demethoxy-6-deoxydaunorubicin] |  |  |  |  |  |  |  | 0.017 (≈ 0.0353 µM) |  |  |  |  | activity at 0.005 µg/mL (Hela cells; Homo sapiens, HeLa, 24 h, dose 5 ng/ml): 119%; activity at 0.01 µg/mL (Hela cells; Homo sapiens, HeLa, 24 h, dose 10 ng/ml): 73%; activity at 0.05 µg/mL (Hela cells; Homo sapiens, HeLa, 24 h, dose 50 ng/ml): 4%; activity at 0.25 µg/mL (Hela cells; Homo sapiens, HeLa, 24 h, dose 250 ng/ml): 0%
C[C@@H]1O[C@@H](O[C@H]2C[C@](O)(C(=O)CO)Cc3cc4c(c(O)c32)C(=O)c2ccccc2C4=O)C[C@H](N)[C@H]1O [4-demethoxy-11-deoxy-4'-epidoxorubicin] |  |  |  |  |  |  |  | 0.02 (≈ 0.0402 µM) |  | 100 | 33 | 1 | activity at 0.4 µg/mL (Hela cells; Homo sapiens, HeLa, 24 h, dose 400 ng/ml): 0%
CC(=O)[C@]1(O)Cc2cc3c(c(O)c2[C@@H](O[C@H]2C[C@H](N)[C@H](O)[C@H](C)O2)C1)C(=O)c1ccccc1C3=O [4-demethoxy-11-deoxydaunorubicin] |  |  |  |  |  |  |  | 0.025 (≈ 0.0519 µM) |  | 112 | 50 | 0 | 
COc1cccc2c1C(=O)c1c(O)c3c(c(O)c1C2=O)C[C@@](O)(C(C)=O)C[C@@H]3O[C@H]1C[C@H](N)[C@H](O)[C@H](C)O1 [Daunorubicin, reference compound] |  | 0/10 | 0/10 | 0/10 | 3/10 |  |  | 0.015 (≈ 0.0284 µM) | 86% and 150% and 93% and 101% |  |  |  | LTS (long term survivors) (P388 ascitic leukemia; dose 2.9, ip on day 1): 0/10; Toxic deaths (evaluated on the basis of zooptic findings) (P388 ascitic leukemia; dose 2.9, ip on day 1): 0/10; activity at 0.0031 µg/mL (Hela cells; Homo sapiens, HeLa, 24 h, dose 3.1 ng/ml): 104%; activity at 0.0125 µg/mL (Hela cells; Homo sapiens, HeLa, 24 h, dose 12.5 ng/ml): 65%; Effect on Hela cells cloning activity, % (Hela cells; dose 3.1 ng/ml): 115%; Effect on Hela cells cloning activity, % (Hela cells; dose 12.5 ng/ml): 83% and 80% and 77% and 79%
